pEC50: −log10 of the molar value.
Key:
Type in all cases: cell-based
[1] = target: T1, P2XA (Dictyostelium discoideum, UniProt Q86JM7); test: whole-cell patch clamp, ADP-evoked current, HEK293 cells; details: weak agonist; external and internal Na+; authors note possible ATP impurity in commercial nucleotides
T1 construct: humanized cDNA, full length, C-terminal EYMPME (EE) tag, pcDNA3.1, transient expression in HEK293 cells
T1 sequence (Q86JM7 1-378): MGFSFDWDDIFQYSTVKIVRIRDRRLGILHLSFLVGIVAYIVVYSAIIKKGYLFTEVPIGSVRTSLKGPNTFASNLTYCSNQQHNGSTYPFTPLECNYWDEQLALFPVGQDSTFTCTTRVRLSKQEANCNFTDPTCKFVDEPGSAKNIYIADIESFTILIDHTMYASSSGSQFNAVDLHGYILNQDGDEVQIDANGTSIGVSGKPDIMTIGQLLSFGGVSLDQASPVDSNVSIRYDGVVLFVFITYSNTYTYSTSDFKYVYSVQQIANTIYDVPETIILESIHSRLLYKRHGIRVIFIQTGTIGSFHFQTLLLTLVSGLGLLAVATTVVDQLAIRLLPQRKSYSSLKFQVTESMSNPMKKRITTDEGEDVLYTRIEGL

[2] = target: T1, P2XA; test: whole-cell patch clamp, ATP-evoked current, HEK293 cells
[3] = target: T2, P2XE (Dictyostelium discoideum, UniProt Q54JH4); test: as above
T2 construct: humanized cDNA (Genscript), full length, C-terminal EYMPME (EE) tag, pcDNA3.1, transient expression in HEK293 cells
T2 sequence (Q54JH4 1-388): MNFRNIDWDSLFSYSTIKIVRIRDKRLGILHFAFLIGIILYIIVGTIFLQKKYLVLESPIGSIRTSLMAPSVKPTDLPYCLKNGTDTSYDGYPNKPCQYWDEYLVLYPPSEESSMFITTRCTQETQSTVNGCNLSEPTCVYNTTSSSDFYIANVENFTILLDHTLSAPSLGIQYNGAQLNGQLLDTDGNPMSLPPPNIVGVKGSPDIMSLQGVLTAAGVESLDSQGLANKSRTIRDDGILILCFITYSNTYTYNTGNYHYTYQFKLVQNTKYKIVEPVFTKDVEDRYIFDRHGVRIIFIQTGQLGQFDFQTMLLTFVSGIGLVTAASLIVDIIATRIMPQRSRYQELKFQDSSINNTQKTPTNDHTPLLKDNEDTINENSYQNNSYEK

[4] = target: T3, P2XB (Dictyostelium discoideum, UniProt Q553Y1); test: as above
T3 construct: humanized cDNA (Genscript), full length, C-terminal EYMPME (EE) tag, pcDNA3.1, transient expression in HEK293 cells
T3 sequence (Q553Y1 1-369): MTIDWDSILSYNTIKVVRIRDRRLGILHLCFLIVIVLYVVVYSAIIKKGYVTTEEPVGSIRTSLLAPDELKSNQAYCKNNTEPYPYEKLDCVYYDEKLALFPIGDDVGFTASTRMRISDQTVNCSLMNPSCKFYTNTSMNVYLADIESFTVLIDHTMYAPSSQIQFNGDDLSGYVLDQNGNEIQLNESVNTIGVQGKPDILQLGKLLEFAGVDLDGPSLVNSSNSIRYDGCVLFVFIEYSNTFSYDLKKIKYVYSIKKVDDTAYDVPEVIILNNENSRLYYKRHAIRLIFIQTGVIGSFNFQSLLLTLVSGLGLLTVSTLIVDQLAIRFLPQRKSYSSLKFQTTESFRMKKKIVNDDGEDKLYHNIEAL

[5] = target: T4, P2XD (Dictyostelium discoideum, UniProt Q54J33); test: as above
T4 construct: humanized cDNA (Genscript), full length, C-terminal EYMPME (EE) tag, pcDNA3.1, transient expression in HEK293 cells
T4 sequence (Q54J33 1-407): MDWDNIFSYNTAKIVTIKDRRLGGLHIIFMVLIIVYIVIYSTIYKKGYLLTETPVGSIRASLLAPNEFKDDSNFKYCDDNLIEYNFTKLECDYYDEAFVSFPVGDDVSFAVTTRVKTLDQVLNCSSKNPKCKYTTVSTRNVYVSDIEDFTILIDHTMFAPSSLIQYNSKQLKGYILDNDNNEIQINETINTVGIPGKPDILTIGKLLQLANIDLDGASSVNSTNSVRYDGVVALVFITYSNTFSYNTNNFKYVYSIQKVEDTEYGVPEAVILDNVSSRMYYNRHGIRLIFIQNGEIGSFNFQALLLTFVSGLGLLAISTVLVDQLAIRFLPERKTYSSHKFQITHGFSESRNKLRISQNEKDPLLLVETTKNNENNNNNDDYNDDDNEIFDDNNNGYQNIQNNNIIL

Structure (SMILES)	% of ATP current at 3 mM [1]	pEC50 [2]	pEC50 [3]	pEC50 [4]	pEC50 [5]
Nc1ncnc2c1ncn2[C@@H]1O[C@H](COP(=O)(O)OP(=O)(O)O)[C@@H](O)[C@H]1O [ADP]	~ 10%				
Nc1ncnc2c1ncn2[C@@H]1O[C@H](COP(=O)(O)OP(=O)(O)OP(=O)(O)O)[C@@H](O)[C@H]1O [ATP]		3.80	~3.52	~2.52	~2.52

From paper PMC3774368, “Functional Properties of Five Dictyostelium discoideum P2X Receptors” (The Journal of Biological Chemistry, 2013)
